From PMC10562414, “GLP-1R signaling neighborhoods associate with the susceptibility to adverse drug reactions of incretin mimetics” (Nature Communications, 2023)

Tests used:
[1] = biological target: kinase substrates (Kinase Library); experiment: Kinase substrate enrichment analysis of regulated phosphopeptides; design: species or system human; conditions: 1 μM
Protocol: All further data processing was performed in R (version 4.2.1). Only phosphopeptides with a localization score of at least 0.75 were considered for further analysis. Peptides quantified with different charge states were aggregated and only phosphopeptides with at least 2 quantifications for each time point, treatment and replicate were kept. Intensities were normalized by median centering and log2-scaling. Missing values were imputed by k-NN imputation. All statistical comparisons were performed based on homoscedastic two-tailed Student’s t-tests. For the kinase substrate enrichment analysis, the Kinase Library online analytical tool[73] was used with predetermined foreground and background sets based on previously determined significance thresholds (P < 0.05; log2 fold change >1). All remaining settings were left as default.

[2] = biological target: T1, GLP-1R (Homo sapiens, UniProt P43220); experiment: ebBRET pathway activation (effector membrane translocation, 15 pathways) at the plasma membrane (rGFP-CAAX); assay type: cell-based; design: Potency (logEC50): scale not given here; conditions: for Efficacy (normalized) / Emax / Potency (logEC50): Plasma membrane; for Efficacy (normalized): Fig. 2c; for Potency (logEC50): Fig. 2d
T1 sequence (P43220 24-463): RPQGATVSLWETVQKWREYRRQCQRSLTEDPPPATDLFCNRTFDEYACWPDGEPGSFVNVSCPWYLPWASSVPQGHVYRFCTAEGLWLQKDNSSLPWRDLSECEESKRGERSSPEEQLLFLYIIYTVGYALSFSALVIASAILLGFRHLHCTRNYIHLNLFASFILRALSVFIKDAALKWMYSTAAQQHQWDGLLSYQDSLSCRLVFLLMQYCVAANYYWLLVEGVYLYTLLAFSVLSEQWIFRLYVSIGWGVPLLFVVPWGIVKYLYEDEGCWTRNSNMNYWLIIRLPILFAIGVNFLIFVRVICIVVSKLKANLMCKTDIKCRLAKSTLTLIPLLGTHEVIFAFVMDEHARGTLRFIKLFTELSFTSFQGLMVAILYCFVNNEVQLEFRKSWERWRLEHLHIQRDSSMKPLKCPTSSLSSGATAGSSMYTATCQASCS

[3] = biological target: T1, GLP-1R; experiment: ebBRET pathway activation (15 pathways) at the endoplasmic reticulum (tdrGFP-PTP1B); assay type: cell-based; conditions: for Emax: Endoplasmic reticulum; for Efficacy (normalized) / Potency (logEC50): endoplasmic reticulum
Protocol: Subcellular resolution was achieved by using organelle-specific energy acceptors for early endosomes, the Golgi apparatus and the endoplasmic reticulum.
Data are represented as the mean ± SEM (n = 3 biologically independent experiments). EE early endosomes, GA Golgi apparatus, ER endoplasmic reticulum.
HEK293 cells were cultured in DMEM supplemented with 10% FBS, 1% penicillin/streptomycin, propagated in plastic flasks and grown at 37 °C in 5% CO2 and 90% humidity. […] After a 48-hour incubation, cells were washed once with HBSS and maintained in the same buffer.
Best fit values were excluded if EC50 was outside of the concentration range tested or if the span was negative. […] All further data processing was performed in R (version 4.2.1).
Pharmacological characterization of GLP-1R agonist signaling
profiles at the endoplasmic reticulum. a, Illustration depicting the ebBRET approach to
monitoring signaling at the endoplasmic reticulum. b, Concentration-response curves of GLP-1R
agonists across 15 pathways at the endoplasmic reticulum using tdrGFP-P TP1B. Data are
represented by the non-linear fit and sc aled according to the highest responding drug (n=3
biologically independent samples). Drug-s pecific polar area diagrams for efficacy (normalized
endoplasmic reticulum. Drugs were deemed to activate a given pathway after comparing
the top and bottom parameters from non-linear regression by one-sided extra sum-o f-
similarity index for efficacy (e) and potency (f) quantifies similarities and differences across drug
Drug- induced transducer engagement by GLP-1R at the
endoplasmic reticulum. Agonist concentration response curves for 15 transducers at the
endoplasmic reticulum. Drugs were deemed to activate a given pathway after comparing the top
and bottom parameters from non-linear regres sion by one-sided extra s um-o f-s quares F-t est
Data are represented as the
mean ± SEM (n=3 biologically independent samples). Sigmoidal dose-r esponse curves are
Polar area diagrams depict pathway activation at the endoplasmic
reticulum. Pathway-specific polar area diagrams for efficacy (normalized to the highest
were deemed to activate a given pathway after comparing the top and bottom parameters from
non-linear regression by one-sided extra sum-o f-s quares F-t est followed by Bonferroni

[4] = plasma membrane rGFP-CAAX, HEK293, PDZRhoGEF-RlucII, agonist incubation 0 min, as tabulated for polar area diagram, n=3-6
[5] = plasma membrane rGFP-CAAX, HEK293, Rap1Gap-RlucII, agonist incubation 0 min, as tabulated for polar area diagram, n=3-6
[6] = plasma membrane rGFP-CAAX, HEK293, Rap1Gap-RlucII, agonist incubation 0 min, normalized to the highest responding drug, F test P < 0.00625, n=3-6
[7] = plasma membrane rGFP-CAAX, HEK293, p63RhoGEF-RlucII, agonist incubation 0 min, as tabulated for polar area diagram, n=3-6
[8] = plasma membrane rGFP-CAAX, HEK293, p63RhoGEF-RlucII, agonist incubation 0 min, normalized to the highest responding drug, F test P < 0.00625, n=3-6

N#Cc1ccc(COc2cccc(C3CCN(Cc4nc5ccc(C(=O)O)cc5n4C[C@@H]4CCO4)CC3)n2)c(F)c1 [Danuglipron]
kinase kinetics, in words [1]: distinctly different kinetics | dominant_enrichment_value_log2, NUAK2 ([1]; 15min, log10 abs adjusted p 0.784095): 1.911 | dominant_enrichment_value_log2, PKACA ([1]; 15min, log10 abs adjusted p 0.96096): 2.68 | dominant_enrichment_value_log2, PRKD3 ([1]; 15min, log10 abs adjusted p 1.61335): 3.823 | dominant_enrichment_value_log2, PRKD2 ([1]; 15min, log10 abs adjusted p 1.89437): 2.877 | dominant_enrichment_value_log2, SIK ([1]; 15min, log10 abs adjusted p 3.68823): 3.799 | pathway activation at the plasma membrane, in words ([2]; 15 pathways, HEK293, ebBRET): biased away from βARR towards Gs and Gi/o | Efficacy (normalized) ([2]; GRK2/Gβγ): 0.6954 | Emax ([2]; GRK/Gβγ): 0.5067 | Emax ([2]; Gα11): 0 | Efficacy (normalized) ([2]; Gα11): 0 | Potency (logEC50) ([2]; Gα11): 0 | Emax ([2]; Gα12): 0 | Efficacy (normalized) ([2]; Gα12): 0 | Potency (logEC50) ([2]; Gα12): 0 | Emax ([2]; Gα13): 0 | Efficacy (normalized) ([2]; Gα13): 0 | Potency (logEC50) ([2]; Gα13): 0 | Emax ([2]; Gα14): 0 | Efficacy (normalized) ([2]; Gα14): 0 | Potency (logEC50) ([2]; Gα14): 0 | Emax ([2]; Gα15): 0 | Efficacy (normalized) ([2]; Gα15): 0 | Potency (logEC50) ([2]; Gα15): 0 | Emax ([2]; Gαi1): 0.0218 | Efficacy (normalized) ([2]; Gαi1): 0.3729 | Potency (logEC50) ([2]; Gαi1): 0.3182 | Emax ([2]; Gαi2): 0.2304 | Efficacy (normalized) ([2]; Gαi2): 0.9309 | Potency (logEC50) ([2]; Gαi2): 0.1266 | Emax ([2]; Gαi3): 0.03983 | Efficacy (normalized) ([2]; Gαi3): 0.6445 | Potency (logEC50) ([2]; Gαi3): 0.2454 | Emax ([2]; GαoA): 0 | Efficacy (normalized) ([2]; GαoA): 0 | Potency (logEC50) ([2]; GαoA): 0 | Emax ([2]; GαoB): 0.4329 | Efficacy (normalized) ([2]; GαoB): 0.5975 | Potency (logEC50) ([2]; GαoB): 0.326 | Emax ([2]; Gαq): 0 | Efficacy (normalized) ([2]; Gαq): 0 | Potency (logEC50) ([2]; Gαq): 0 | Emax ([2]; Gαs): 1.832 | Efficacy (normalized) ([2]; Gαs): 0.7714 | Potency (logEC50) ([2]; Gαs): 0.5221 | Emax ([2]; Gαz): 0.2013 | Efficacy (normalized) ([2]; Gαz): 0.678 | Potency (logEC50) ([2]; Gαz): 0.3391 | Emax ([2]; βARR): 0.3843 | Efficacy (normalized) ([2]; βARR2): 0.2947 | Efficacy (normalized), GRK2/Gβγ ([2]; plasma membrane rGFP-CAAX, HEK293, GRK2-D110A-RlucII, agonist incubation 0 min, normalized to the highest responding drug, F test P < 0.00625, n=3-6): 0.6954 | Potency (logEC50), Gα12 [2, 4]: 0 | Potency (logEC50), Gα13 [2, 4]: 0 | Efficacy (normalized), Gα13 ([2]; plasma membrane rGFP-CAAX, HEK293, PDZRhoGEF-RlucII, agonist incubation 0 min, normalized to the highest responding drug, F test P < 0.00625, n=3-6): 0 | Potency (logEC50), Gαi1 [2, 5]: 0.3182 | Potency (logEC50), Gαi2 [2, 5]: 0.1266 | Potency (logEC50), Gαi3 [2, 5]: 0.2454 | Potency (logEC50), GαoA [2, 5]: 0 | Potency (logEC50), GαoB [2, 5]: 0.326 | Potency (logEC50), Gαz [2, 5]: 0.3391 | Efficacy (normalized), Gαi1 [2, 6]: 0.3729 | Efficacy (normalized), Gαi2 [2, 6]: 0.9309 | Efficacy (normalized), Gαi3 [2, 6]: 0.6445 | Efficacy (normalized), GαoA [2, 6]: 0 | Efficacy (normalized), GαoB [2, 6]: 0.5975 | Efficacy (normalized), Gαz [2, 6]: 0.678 | Potency (logEC50), Gαs ([2]; plasma membrane rGFP-CAAX, HEK293, Rluc8-mGs, agonist incubation 0 min, as tabulated for polar area diagram, n=3-6): 0.5221 | Efficacy (normalized), Gαs ([2]; plasma membrane rGFP-CAAX, HEK293, Rluc8-mGs, agonist incubation 0 min, normalized to the highest responding drug, F test P < 0.00625, n=3-6): 0.7714 | Potency (logEC50), Gα11 [2, 7]: 0 | Potency (logEC50), Gα14 [2, 7]: 0 | Potency (logEC50), Gα15 [2, 7]: 0 | Potency (logEC50), Gαq [2, 7]: 0 | Efficacy (normalized), Gα11 [2, 8]: 0 | Efficacy (normalized), Gα14 [2, 8]: 0 | Efficacy (normalized), Gα15 [2, 8]: 0 | Efficacy (normalized), Gαq [2, 8]: 0 | Efficacy (normalized), βARR2 ([2]; plasma membrane rGFP-CAAX, HEK293, β-arrestin-2-RlucII, agonist incubation 0 min, normalized to the highest responding drug, F test P < 0.00625, n=3-6): 0.2947 | Emax ([3]; GRK/Gβγ): 0.1421 | Emax ([3]; Gα11): 0 | Emax ([3]; Gα12): 0 | Emax ([3]; Gα13): 0 | Emax ([3]; Gα14): 0 | Emax ([3]; Gα15): 0 | Emax ([3]; Gαi1): 0 | Emax ([3]; Gαi2): 0 | Emax ([3]; Gαi3): 0 | Emax ([3]; GαoA): 0 | Emax ([3]; GαoB): 0 | Emax ([3]; Gαq): 0 | Emax ([3]; Gαs): 0.2391 | Emax ([3]; Gαz): 0 | Emax ([3]; βARR): 0.08276 | mGs recruitment at the endoplasmic reticulum, in words ([3]; Rluc8-mGs, tdrGFP-PTP1B, 60 min, n = 3): the only drug capable of recruiting mGs to the endoplasmic reticulum | Efficacy (normalized) ([3]; GRK2/Gβγ, Supplementary Fig. 15c): 0.6257 | Efficacy (normalized) ([3]; Gα11, Supplementary Fig. 15c): 0 | Potency (logEC50) ([3]; Gα11, Supplementary Fig. 15d): 0 | Efficacy (normalized) ([3]; Gα12, Supplementary Fig. 15c): 0 | Potency (logEC50) ([3]; Gα12, Supplementary Fig. 15d): 0 | Efficacy (normalized) ([3]; Gα13, Supplementary Fig. 15c): 0 | Potency (logEC50) ([3]; Gα13, Supplementary Fig. 15d): 0 | Efficacy (normalized) ([3]; Gα14, Supplementary Fig. 15c): 0 | Potency (logEC50) ([3]; Gα14, Supplementary Fig. 15d): 0 | Efficacy (normalized) ([3]; Gα15, Supplementary Fig. 15c): 0 | Potency (logEC50) ([3]; Gα15, Supplementary Fig. 15d): 0 | Efficacy (normalized) ([3]; Gαi1, Supplementary Fig. 15c): 0 | Potency (logEC50) ([3]; Gαi1, Supplementary Fig. 15d): 0 | Efficacy (normalized) ([3]; Gαi2, Supplementary Fig. 15c): 0 | Potency (logEC50) ([3]; Gαi2, Supplementary Fig. 15d): 0 | Efficacy (normalized) ([3]; Gαi3, Supplementary Fig. 15c): 0 | Potency (logEC50) ([3]; Gαi3, Supplementary Fig. 15d): 0 | Efficacy (normalized) ([3]; GαoA, Supplementary Fig. 15c): 0 | Potency (logEC50) ([3]; GαoA, Supplementary Fig. 15d): 0 | Efficacy (normalized) ([3]; GαoB, Supplementary Fig. 15c): 0 | Potency (logEC50) ([3]; GαoB, Supplementary Fig. 15d): 0 | Efficacy (normalized) ([3]; Gαq, Supplementary Fig. 15c): 0 | Potency (logEC50) ([3]; Gαq, Supplementary Fig. 15d): 0 | Efficacy (normalized) ([3]; Gαs, Supplementary Fig. 15c): 1 | Potency (logEC50) ([3]; Gαs, Supplementary Fig. 15d): 0.2956 | Efficacy (normalized) ([3]; Gαz, Supplementary Fig. 15c): 0 | Potency (logEC50) ([3]; Gαz, Supplementary Fig. 15d): 0 | Efficacy (normalized) ([3]; βARR2, Supplementary Fig. 15c): 0.2909 | Potency (logEC50) ([3]; βARR2, Supplementary Fig. 15d): 0.3992
